Assay results from patent US20030228343A1, “Method for controlling a population of social insects using 1-arylpyrazoles or 1-heteroarylpyrazoles” (priority 1995, published 2003).

Assays:
[1] = tested on: Blatella Germanica cockroaches; assay: Bait pellet test on cockroaches in boxes, with later introduction of healthy cockroaches; format: in vivo; settings: 2.7 g bait pellet with 1.35 mg active, bait removed after 8 hours and 15 new healthy cockroaches added
Procedure: Tests are carried out on Blatella Germanica cockroaches in boxes 36×24×14 cm in size. These boxes comprise a source of water, a shelter consisting of piled pieces of cardboard, and additional food consisting of biscuit pieces.
15 cockroaches are introduced into the box without bait.
After 24 hours, a 2.7 g pellet of bait with 1.35 mg of product of formula (I) is introduced into the box.
After a further 8 hours, the bait and the additional food are removed and 15 new healthy cockroaches are introduced.

Lasius niger = assay: Honey bait placed near an active anthill, population destruction; format: in vivo; settings: 10 g of a 0.05% dispersion in honey
Text: A watch glass containing 10 g of a 0.05% dispersion of compound A in honey is placed 20 cm from the entrance to an active anthill. The ants are of the species Lasius niger, for which the fraction of workers whose function is to collect food is in the region of 10% of the total population. The total population is estimated by a count carried out on an untreated anthill, referred to as the control, containing 10,000 individuals.
During the first 2 days, it is observed that the ants head in a column from the anthill to the watch glass, stop to take up the dispersion and then return to the anthill.
An update on the latter is then obtained by excavation.

N#Cc1nn(-c2c(Cl)cc(C(F)(F)F)cc2Cl)c(N)c1[S+]([O-])C(F)(F)F (centres unmarked) [compound A, 5-amino-3-cyano-I-[2,6-dichloro4-(trifluoromethyl)phenyl]-4[(trifluoromethyl)sulfinyl]-IH-pyrazole]
cockroaches dead ([1]; 64 hours after introduction of the bait): 98.6%
cockroaches dead ([1]; after 88 hours): 100%
destruction rate (Lasius niger; 20 cm from anthill entrance, excavation after 15 days, total population about 10,000 individuals): greater than 99%
surface activity around the anthill (Lasius niger; after 15 days): no further surface activity
destruction of larvae in the anthill (Lasius niger; excavation after 15 days): all the larvae have been destroyed
